Legend:
Rattus norvegicus [1] = conditions: oral, gavage
Rattus norvegicus [2] = conditions: oral, gavage; for LOAEL / NOAEL: Sprague-Dawley
[3] = short-term, duration: 28 days, F, Sprague-Dawley, Functional Observational Battery: Locomotor activity decrease
[4] = short-term, duration: 28 days, M, Sprague-Dawley, Functional Observational Battery: Locomotor activity decrease
[5] = reproduction developmental, duration: 4 weeks, M, Rjhan:SD, generation: P0, P0: Whole Body: Clinical Observations
[6] = reproduction developmental, duration: 4 weeks, M, generation: P0, P0: General Toxicity: Whole Body: Body Weight + P0: General Toxicity: Whole Body: Clinical Observations + P0: General Toxicity: Whole Body: …
[7] = reproduction developmental, duration: 6 weeks, F, Rjhan:SD, generation: P0, P0: Whole Body: Clinical Observations
[8] = reproduction developmental, duration: 54 days, F, generation: P0, P0: General Toxicity: Whole Body: Body Weight + P0: General Toxicity: Whole Body: Clinical Observations + P0: General Toxicity: Whole Body: …

O=C1C(Cl)=C(Cl)C(=O)N1Cc1ccccc1 [1-benzyl-3,4-dichloro-1H-pyrrole-2,5-dione]
NOEL (Rattus norvegicus [1]; short-term, duration: 28 days, M/F, Clinical Observation: Salivation + Body Weight Changes: Body weight gain decrease + Blood Chemistry: TG decrease, GLU decrease + Organ …): 40 mg/kg-day

O=C1NC(=O)c2c(Cl)c(Cl)c(Cl)c(Cl)c21 [1H-Isoindole-1,3(2H)-dione, 4,5,6,7-tetrachloro-]
LOEL (Rattus norvegicus [1]; [3]): 1000 mg/kg-day
NOEL (Rattus norvegicus [1]; [3]): 300 mg/kg-day
LOEL (Rattus norvegicus [1]; [4]): 1000 mg/kg-day
NOEL (Rattus norvegicus [1]; [4]): 300 mg/kg-day

CC(C)=CCl [2,2-Dimethylvinyl chloride]
NOEL (Rattus norvegicus [1]; subchronic, duration: 13 weeks, M/F, Fischer 344, Deaths + Clinical Observation: Rough hair Inactivity Perianal wetness + Body Weight Changes: decrease + Histopathology: Liver/periportal-…): 125 mg/kg-day

C=C(F)C(F)(F)C(F)(F)C(F)F [2,3,3,4,4,5,5-Heptafluoro-1-pentene]
NOEL (Rattus norvegicus [1]; short-term, duration: 28 days, M/F, Deaths + Clinical Observation: Salivation Locomotor activity decrease, Whitish discoloration of tooth Bradypnea Reddening of extremity and …): 8 mg/kg-day

O=C(c1ccc(O)cc1)c1ccc(O)c(O)c1O [2,3,4,4'-Tetrahydroxybenzophenone]
NOEL (Rattus norvegicus [1]; subchronic, duration: 42 days, M, CD(SD), Clinical Observation: Salivation + Functional Observational Battery: Hind limb grip strength decrease + Body Weight Changes: Weight gain …): < 100 mg/kg-day

CC(=O)C(C)=O [2,3-Butanedione]
NOEL (Rattus norvegicus [1]; subchronic, duration: 90 days, M/F, CFE, Body Weight Changes: decrease + Water Consumption: increase + Hematology: HGB decrease, HCT decrease, RET increase, WBC increase, NEUT …): 90 mg/kg-day

O=S(=O)(O)C(F)(F)F [Trifluoromethanesulfonic acid]
LOAEL (Rattus norvegicus [2]; developmental, duration: 54 days, M/F, generation: F1, F1: Developmental: Whole Body: Dams with Liveborn Pups + F1: Developmental: Whole Body: Lactation Index + F1: Developmental: Whole Body: …): 300 mg/kg-day
NEL (Rattus norvegicus [2]; reproduction developmental, duration: 4 weeks, M, Rjhan:SD, generation: P0, P0: Multi-organ: Histopathology, Unspecified + P0: Multi-organ: Organ Weights, Unspecified + P0: Whole Body: Body Weight, Absolute + P0: …): 1000 mg/kg-day
LEL (Rattus norvegicus [2]; [5]): 300 mg/kg-day
NEL (Rattus norvegicus [2]; [5]): 100 mg/kg-day
LOAEL (Rattus norvegicus [2]; [6]): 300 mg/kg-day
NOAEL (Rattus norvegicus [2]; [6]): 100 mg/kg-day
NOAEL (Rattus norvegicus [2]; reproduction developmental, duration: 4 weeks, M, generation: P0, P0: Whole Body: Whole Body: Histopathology, Unspecified): 1000 mg/kg-day
NEL (Rattus norvegicus [2]; reproduction developmental, duration: 6 weeks, F, Rjhan:SD, generation: P0, P0: Multi-organ: Histopathology, Unspecified + P0: Multi-organ: Organ Weights, Unspecified + P0: Ovary: Corpora Lutea + P0: Uterus: …): 1000 mg/kg-day
LEL (Rattus norvegicus [2]; [7]): 1000 mg/kg-day
NEL (Rattus norvegicus [2]; [7]): 300 mg/kg-day
NEL (Rattus norvegicus [2]; reproduction developmental, duration: 6 weeks, M/F, Rjhan:SD, generation: F1, F1: Whole Body: Body Weight, Absolute + F1: Whole Body: Clinical Observations + F1: Whole Body: Dams with Liveborn Pups + F1: Whole Body: …): 1000 mg/kg-day
LOAEL (Rattus norvegicus [2]; reproduction developmental, duration: 54 days, F, generation: P0, P0: Developmental: Uterus: Implantation + P0: Developmental: Uterus: Post-Implantation Loss + P0: Developmental: Uterus: Pre-Implantation …): 300 mg/kg-day
LOAEL (Rattus norvegicus [2]; [8]): 300 mg/kg-day
NOAEL (Rattus norvegicus [2]; [8]): 100 mg/kg-day
NEL (Rattus norvegicus [2]; short-term, duration: 28 days, F, Crj:CD, Adrenal: Adrenal Gland Weight, Absolute + Adrenal: Adrenal Gland Weight, Absolute, Recovery + Adrenal: Adrenal Gland Weight, Relative + …): 1000 mg/kg-day
LEL (Rattus norvegicus [2]; short-term, duration: 28 days, F, Crj:CD, Blood: Platelet Count (PLT) + Blood: Total Protein (TP), Blood + Forestomach: Boundary Ridge Protrusion + Kidney: Pyelectasis + Stomach: …): 1000 mg/kg-day
NEL (Rattus norvegicus [2]; short-term, duration: 28 days, F, Crj:CD, Blood: Platelet Count (PLT) + Blood: Total Protein (TP), Blood + Forestomach: Boundary Ridge Protrusion + Stomach: Glandular Stomach, …): 200 mg/kg-day
NEL (Rattus norvegicus [2]; short-term, duration: 28 days, M, Crj:CD, Adrenal: Adrenal Gland Weight, Absolute + Adrenal: Adrenal Gland Weight, Absolute, Recovery + Adrenal: Adrenal Gland Weight, Relative + …): 1000 mg/kg-day
LEL (Rattus norvegicus [2]; short-term, duration: 28 days, M, Crj:CD, Blood: Albumin/Globulin (A/G) Ratio, Recovery + Blood: Calcium (CA), Recovery, Blood + Blood: Chloride (CL), Recovery, Blood + Forestomach: …): 1000 mg/kg-day
NEL (Rattus norvegicus [2]; short-term, duration: 28 days, M, Crj:CD, Forestomach: Boundary Ridge Protrusion): 200 mg/kg-day
